Assay results published in ChEMBL document CHEMBL3352249, “Novel indolizine derivatives with unprecedented inhibitory activity on human farnesyltransferase” (Bioorg Med Chem Lett, 2014).

What was measured:
[1] = target: T1, Protein farnesyltransferase (Homo sapiens, UniProt P49354+P49356); experiment: Inhibition of human recombinant farnesyltransferase using Dansyl-GCVLS peptide as substrate after 15 mins by fluorescence assay
[2] = target: T1, Protein farnesyltransferase; experiment: Inhibition of human recombinant farnesyltransferase using Dansyl-GCVLS peptide as substrate at 100 uM after 15 mins by fluorescence assay

| IC50 [1] [µM] | inhibition [2] [%] | Compound |
| --- | --- | --- |
| 57.8 | 74 | C#CCNC(=O)c1cc(C(=O)c2ccccc2)n2c(C)cccc12 |
|  | 72 | C#CCOC(=O)c1cc(C(=O)c2ccccc2)n2ccc(C)cc12 |
| 7.3 | 94 | C#CCCOC(=O)c1cc(C(=O)c2ccccc2)n2c(C)cccc12 |
|  | 0 | C#CCCOC(=O)c1cc(C(=O)c2ccccc2)n2ccc(C)cc12 |
| 19.4 | 100 | O=C(O)c1cc(C(=O)c2ccc(Br)cc2)n2ccccc12 |
| 0.18 | 100 | CCCCCCCCCCCCCC/C(C(=O)O)=C(\C)C(=O)O [CHAETOMELLIC ACID A] |
|  | 0 | C#CCCOC(=O)c1cc(C(=O)c2ccc(Cl)cc2)n2ccc(C)cc12 |
|  | 0 | C#CCOC(=O)c1cc(C(=O)c2ccc(Cl)cc2)n2ccc(C)cc12 |
| 11.4 | 90 | C#CCNC(=O)c1cc(C(=O)c2ccc(Br)cc2)n2c(C)cccc12 |
| 14.8 | 91 | Cc1cccc2c(C(=O)O)cc(C(=O)c3ccc(Br)cc3)n12 |
| 22.1 | 100 | C#CCNC(=O)c1cc(C(=O)c2ccccc2)n2ccccc12 |
|  | 0 | Cc1ccn2c(C(=O)c3ccc(Cl)cc3)cc(C(=O)O)c2c1 |
|  | 0 | Cc1ccn2c(C(=O)c3ccc(Br)cc3)cc(C(=O)O)c2c1 |
|  | 0 | C#CCCOC(=O)c1cc(C(=O)c2ccc(Cl)cc2)n2ccccc12 |
|  | 68 | C#CCCOC(=O)c1cc(C(=O)c2ccc(Br)cc2)n2ccc(C)cc12 |
| 14.4 | 100 | C#CCOC(=O)c1cc(C(=O)c2ccccc2)n2ccccc12 |
| 14.9 | 97 | C#CCNC(=O)c1cc(C(=O)c2ccc(Cl)cc2)n2c(C)cccc12 |

| IC50 [1] [µM] | inhibition [2] [%] | Compound |
| --- | --- | --- |
|  | 61 | C#CCCOC(=O)c1cc(C(=O)c2ccccc2)n2ccccc12 |
| 1.3 | 100 | C#CCOC(=O)c1cc(C(=O)c2ccc(Br)cc2)n2c(C)cccc12 |
| 2.2 | 100 | C#CCCOC(=O)c1cc(C(=O)c2ccc(Br)cc2)n2c(C)cccc12 |
| 20.7 | 100 | O=C(O)c1cc(C(=O)c2ccc(Cl)cc2)n2ccccc12 |
|  | 54 | C#CCOC(=O)c1cc(C(=O)c2ccc(Cl)cc2)n2ccccc12 |
| 32.2 | 79 | Cc1cccc2c(C(=O)O)cc(C(=O)c3ccc(Cl)cc3)n12 |
| 20.8 | 93 | C#CCOC(=O)c1cc(C(=O)c2ccccc2)n2c(C)cccc12 |
| 72.3 | 100 | Cc1ccn2c(C(=O)c3ccccc3)cc(C(=O)O)c2c1 |
| 5.9 | 94 | C#CCNC(=O)c1cc(C(=O)c2ccc(Cl)cc2)n2ccccc12 |
| 4.4 | 100 | C#CCNC(=O)c1cc(C(=O)c2ccc(Br)cc2)n2ccccc12 |
| 2.6 | 100 | C#CCOC(=O)c1cc(C(=O)c2ccc(Cl)cc2)n2c(C)cccc12 |
|  | 48 | Cc1cccc2c(C(=O)O)cc(C(=O)c3ccccc3)n12 |
| 15.3 | 100 | C#CCNC(=O)c1cc(C(=O)c2ccccc2)n2ccc(C)cc12 |
|  | 0 | C#CCCOC(=O)c1cc(C(=O)c2ccc(Br)cc2)n2ccccc12 |
| 20.7 | 97 | C#CCCOC(=O)c1cc(C(=O)c2ccc(Cl)cc2)n2c(C)cccc12 |
| 19.7 | 100 | O=C(O)c1cc(C(=O)c2ccccc2)n2ccccc12 |
